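Compound exposure: 48 hours, 5 concentrations, 96-well plates. The concentration for 50% growth inhibition is given as GI50. TGI: concentration producing complete growth inhibition.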
Assays:
Test in all cases: growth of human tumour cells (NCI), 48 h
HL-60(TB) leukemia = system: HL-60(TB) leukemia
SF-295 CNS = system: SF-295 CNS
SK-MEL-2 melanoma = system: SK-MEL-2 melanoma
SK-MEL-28 melanoma = system: SK-MEL-28 melanoma
SK-OV-3 ovarian = system: SK-OV-3 ovarian
SR leukemia = system: SR leukemia
RPMI-8226 leukemia = system: RPMI-8226 leukemia
TK-10 renal = system: TK-10 renal
MDA-MB-435 = system: MDA-MB-435
PC-3 prostate = system: PC-3 prostate

NC(=O)c1c[se]c(C2OC(COP(=O)(O)CP(=O)(O)OCC3OC(n4cnc5c(N)ncnc54)C(O)C3O)C(O)C2O)n1 (stereo not drawn)
TGI (HL-60(TB) leukemia): > 100 µM
TGI (SF-295 CNS): > 100 µM
TGI (SK-MEL-2 melanoma): > 100 µM
TGI (SK-MEL-28 melanoma): > 100 µM
TGI (SK-OV-3 ovarian): > 100 µM
TGI (SR leukemia): > 100 µM

CC(C)(C)c1cc(CCC(=O)Nc2ccc(Cl)cc2Cl)nc(N)n1
TGI (HL-60(TB) leukemia): > 100 µM
TGI (SF-295 CNS): > 100 µM
TGI (SK-MEL-2 melanoma): > 100 µM
TGI (SK-MEL-28 melanoma): > 100 µM
TGI (SK-OV-3 ovarian): > 100 µM
TGI (SR leukemia): > 100 µM

CCOC(=O)C[C@@]12CCCNC1(C)CCc1ccccc12 (stereo partly drawn)
TGI (HL-60(TB) leukemia): > 100 µM
TGI (RPMI-8226 leukemia): > 100 µM
TGI (SF-295 CNS): > 100 µM
TGI (SK-MEL-2 melanoma): > 100 µM
TGI (SK-OV-3 ovarian): > 100 µM
TGI (TK-10 renal): > 100 µM

COc1ccc(CC2=NCCc3cc(OC)c(OC)cc32)cc1Br
TGI (HL-60(TB) leukemia): 21.7 µM
TGI (SF-295 CNS): 30.4 µM
TGI (SK-MEL-2 melanoma): > 100 µM
TGI (SK-MEL-28 melanoma): > 100 µM
TGI (SK-OV-3 ovarian): > 100 µM
TGI (SR leukemia): 91.1 µM
TGI (TK-10 renal): > 100 µM

COc1ccc(C2NCCc3c2[nH]c2ccccc32)cc1 (stereo not drawn)
TGI (HL-60(TB) leukemia): > 100 µM
TGI (RPMI-8226 leukemia): > 100 µM
TGI (SF-295 CNS): > 100 µM
TGI (SK-MEL-28 melanoma): > 100 µM
TGI (SK-OV-3 ovarian): > 100 µM
TGI (SR leukemia): 91.5 µM
TGI (TK-10 renal): > 100 µM

COc1ccc2[nH]c(-c3ccccc3)cc2c1
GI50 (HL-60(TB) leukemia): > 100 µM
TGI (HL-60(TB) leukemia): > 100 µM
GI50 (MDA-MB-435): > 100 µM
TGI (MDA-MB-435): > 100 µM
GI50 (PC-3 prostate): > 100 µM
TGI (PC-3 prostate): > 100 µM
GI50 (RPMI-8226 leukemia): 43.2 µM
TGI (RPMI-8226 leukemia): > 100 µM
GI50 (SF-295 CNS): 84.7 µM
TGI (SF-295 CNS): > 100 µM
GI50 (SK-MEL-2 melanoma): > 100 µM
TGI (SK-MEL-2 melanoma): > 100 µM
GI50 (SK-MEL-28 melanoma): > 100 µM
TGI (SK-MEL-28 melanoma): > 100 µM
GI50 (SK-OV-3 ovarian): > 100 µM
TGI (SK-OV-3 ovarian): > 100 µM
GI50 (TK-10 renal): > 100 µM
TGI (TK-10 renal): > 100 µM

COc1ccc2[nH]c3c(=O)[nH]ncc3c2c1
TGI (HL-60(TB) leukemia): > 100 µM
TGI (RPMI-8226 leukemia): > 100 µM
TGI (SF-295 CNS): > 100 µM
TGI (SK-MEL-2 melanoma): > 100 µM
TGI (SK-MEL-28 melanoma): > 100 µM
TGI (SK-OV-3 ovarian): > 100 µM
TGI (SR leukemia): > 100 µM
TGI (TK-10 renal): > 100 µM

O=C(/C=C/c1cn(-c2ccccc2)nc1-c1ccc([N+](=O)[O-])cc1)c1ccc(Cl)cc1
TGI (HL-60(TB) leukemia): > 100 µM
GI50 (SF-295 CNS): 2.68 µM
TGI (SF-295 CNS): 12.3 µM
GI50 (SK-MEL-2 melanoma): 5.03 µM
TGI (SK-MEL-2 melanoma): 23 µM
GI50 (SK-OV-3 ovarian): 7.83 µM
TGI (SK-OV-3 ovarian): > 77.3 µM
GI50 (SR leukemia): 2.76 µM
TGI (SR leukemia): > 100 µM
GI50 (TK-10 renal): 3.09 µM
TGI (TK-10 renal): 13.4 µM

COc1nc2c(c(O)c(C)c(=O)n2OC2OC(COC(C)=O)C(OC(C)=O)C(OC(C)=O)C2OC(C)=O)c(=O)n1C (stereo not drawn)
TGI (SF-295 CNS): > 100 µM
TGI (SK-MEL-2 melanoma): > 100 µM
TGI (SK-MEL-28 melanoma): > 100 µM
TGI (SR leukemia): > 100 µM
TGI (TK-10 renal): > 100 µM

O=C1C(c2ccccc2)=C(c2ccccc2)[C@H](c2ccccc2)[C@]1(Cc1nnn(-c2ccc([N+](=O)[O-])cc2)c1N1CCOCC1)c1ccccc1
TGI (HL-60(TB) leukemia): > 37.5 µM
TGI (RPMI-8226 leukemia): > 37.5 µM
TGI (SF-295 CNS): > 37.5 µM
TGI (SK-MEL-28 melanoma): > 37.5 µM
TGI (SK-OV-3 ovarian): > 37.5 µM
TGI (TK-10 renal): > 37.5 µM

CC[P+]1(CC)CCCC1
TGI (RPMI-8226 leukemia): > 100 µM
TGI (SF-295 CNS): > 100 µM
TGI (SK-MEL-2 melanoma): > 100 µM
TGI (SK-MEL-28 melanoma): > 100 µM
TGI (SK-OV-3 ovarian): > 100 µM
TGI (TK-10 renal): > 100 µM

CC1(C)CC(=O)c2c(oc3cc(O)c(O)cc23)C1
TGI (HL-60(TB) leukemia): 48.5 µM
TGI (RPMI-8226 leukemia): 80.4 µM
TGI (SF-295 CNS): > 100 µM
TGI (SK-MEL-2 melanoma): 76.8 µM
TGI (SK-OV-3 ovarian): > 100 µM
TGI (SR leukemia): > 100 µM
TGI (TK-10 renal): > 100 µM

O=C(O)[C@@H]1CCCC[C@@H]1C(=O)N(C1CCCCC1)C1CCCCC1
TGI (HL-60(TB) leukemia): > 100 µM
TGI (RPMI-8226 leukemia): > 100 µM
TGI (SF-295 CNS): > 100 µM
TGI (SK-MEL-2 melanoma): > 100 µM
TGI (SK-MEL-28 melanoma): > 100 µM
TGI (SK-OV-3 ovarian): > 100 µM
TGI (SR leukemia): > 100 µM
TGI (TK-10 renal): > 100 µM

COC(=O)C1(F)C(=O)NC(=O)NC1OC (stereo not drawn)
TGI (HL-60(TB) leukemia): > 100 µM
TGI (RPMI-8226 leukemia): > 100 µM
TGI (SF-295 CNS): > 100 µM
TGI (SK-MEL-2 melanoma): > 100 µM
TGI (SK-MEL-28 melanoma): > 100 µM
TGI (SK-OV-3 ovarian): > 100 µM
TGI (SR leukemia): > 100 µM
TGI (TK-10 renal): > 100 µM

Nc1ccn([C@@H]2C(F)=C(CO)[C@@H](O)[C@H]2O)c(=O)n1
GI50 (HL-60(TB) leukemia): 0.889 µM
TGI (HL-60(TB) leukemia): > 100 µM
GI50 (MDA-MB-435): 0.846 µM
TGI (MDA-MB-435): > 100 µM
GI50 (SF-295 CNS): 4.2 µM
TGI (SF-295 CNS): > 100 µM
GI50 (SK-MEL-2 melanoma): > 100 µM
TGI (SK-MEL-2 melanoma): > 100 µM
GI50 (SK-MEL-28 melanoma): 6.91 µM
TGI (SK-MEL-28 melanoma): > 100 µM
GI50 (SK-OV-3 ovarian): 4.95 µM
TGI (SK-OV-3 ovarian): > 100 µM
GI50 (SR leukemia): 0.443 µM
TGI (SR leukemia): > 100 µM
GI50 (TK-10 renal): 6.73 µM
TGI (TK-10 renal): > 100 µM

CC12OC(C(=O)C13CCC3)C1C(=O)c3ccccc3C(=O)C12 (stereo not drawn)
GI50 (HL-60(TB) leukemia): 52 µM
TGI (HL-60(TB) leukemia): > 100 µM
GI50 (MDA-MB-435): > 100 µM
TGI (MDA-MB-435): > 100 µM
GI50 (PC-3 prostate): 70.7 µM
TGI (PC-3 prostate): > 100 µM
GI50 (RPMI-8226 leukemia): 26.5 µM
TGI (RPMI-8226 leukemia): > 100 µM
GI50 (SK-MEL-2 melanoma): > 100 µM
TGI (SK-MEL-2 melanoma): > 100 µM
GI50 (SK-MEL-28 melanoma): > 100 µM
TGI (SK-MEL-28 melanoma): > 100 µM
GI50 (SK-OV-3 ovarian): > 100 µM
TGI (SK-OV-3 ovarian): > 100 µM
GI50 (TK-10 renal): 92.5 µM
TGI (TK-10 renal): > 100 µM

O=[N+]([O-])C1C2C=CC(C2)[C@H]1c1ccc(Cl)cc1Cl (stereo partly drawn)
TGI (HL-60(TB) leukemia): 53.2 µM
TGI (RPMI-8226 leukemia): 69.1 µM
TGI (SF-295 CNS): > 100 µM
TGI (SK-MEL-2 melanoma): > 100 µM
TGI (SK-MEL-28 melanoma): > 100 µM
TGI (SR leukemia): > 100 µM
TGI (TK-10 renal): > 100 µM

C/C(=N/NC(=O)CC(=O)N(C(=O)c1ccccc1Cl)c1ccc(C)cc1)c1cc2ccccc2oc1=O
TGI (HL-60(TB) leukemia): > 100 µM
TGI (SF-295 CNS): > 100 µM
TGI (SK-MEL-28 melanoma): > 100 µM
TGI (SR leukemia): > 100 µM
TGI (TK-10 renal): > 100 µM

COc1cc2cccc(N=Cc3c(Br)ccc(OC)c3OC(C)C)c2cc1OC
TGI (RPMI-8226 leukemia): 63.7 µM
TGI (SF-295 CNS): > 100 µM
TGI (SK-MEL-2 melanoma): > 100 µM
TGI (SK-MEL-28 melanoma): > 100 µM
TGI (SK-OV-3 ovarian): > 100 µM
TGI (TK-10 renal): > 100 µM

C[N+](C)=c1nc(N2CCOCC2)ss1
TGI (HL-60(TB) leukemia): > 100 µM
TGI (SF-295 CNS): > 100 µM
TGI (SK-MEL-2 melanoma): > 100 µM
TGI (SK-MEL-28 melanoma): > 100 µM
TGI (SK-OV-3 ovarian): > 100 µM
TGI (SR leukemia): > 100 µM
TGI (TK-10 renal): > 100 µM

CCCCCCCCCC(=O)Oc1cccc2onc(C)c12
TGI (HL-60(TB) leukemia): 56.4 µM
TGI (RPMI-8226 leukemia): > 100 µM
TGI (SF-295 CNS): > 100 µM
TGI (SK-MEL-2 melanoma): > 100 µM
TGI (SK-MEL-28 melanoma): > 100 µM
TGI (SK-OV-3 ovarian): > 100 µM
TGI (SR leukemia): > 100 µM
TGI (TK-10 renal): > 100 µM

Cc1nnc(N=Nc2c(O)[nH]c3ccccc23)n1N
TGI (HL-60(TB) leukemia): > 100 µM
TGI (RPMI-8226 leukemia): > 100 µM
TGI (SF-295 CNS): > 100 µM
TGI (SK-MEL-2 melanoma): > 100 µM
TGI (SK-MEL-28 melanoma): > 100 µM
TGI (SK-OV-3 ovarian): > 100 µM
TGI (SR leukemia): > 100 µM
TGI (TK-10 renal): > 100 µM

COc1ccc(C2ONC3=NCCN32)cc1 (stereo not drawn)
GI50 (MDA-MB-435): > 100 µM
TGI (MDA-MB-435): > 100 µM
GI50 (PC-3 prostate): 55.4 µM
TGI (PC-3 prostate): > 100 µM
GI50 (SF-295 CNS): 93.4 µM
TGI (SF-295 CNS): > 100 µM
GI50 (SK-MEL-2 melanoma): > 100 µM
TGI (SK-MEL-2 melanoma): > 100 µM
GI50 (SK-MEL-28 melanoma): > 100 µM
TGI (SK-MEL-28 melanoma): > 100 µM
GI50 (SK-OV-3 ovarian): 40.7 µM
TGI (SK-OV-3 ovarian): > 100 µM
GI50 (TK-10 renal): > 100 µM
TGI (TK-10 renal): > 100 µM

CC1=C(C(=O)CC(=O)C(=O)NC2C3CC4CC(C3)CC2C4)Sc2ccccc2N1 (stereo not drawn)
TGI (HL-60(TB) leukemia): > 100 µM
TGI (RPMI-8226 leukemia): > 100 µM
TGI (SF-295 CNS): > 100 µM
TGI (SK-MEL-2 melanoma): > 100 µM
TGI (SK-MEL-28 melanoma): > 100 µM
TGI (SK-OV-3 ovarian): > 31.6 µM
TGI (TK-10 renal): > 100 µM

Source: PubChem BioAssay (NCI)
